Results reported in patent US20060128640A1 (priority 2001, published 2006).
Read-outs that look alike come from different tables or passages of the source.

Legend:
[1] = system: murine mammary adenocarcinoma MA13/C; conditions: for highest non-toxic total dose, component alone: single agent IV, Taxotere d14, 23, flavopiridol d14-17, 20-23
[2] = system: mammary adenocarcinoma MA 13/C; conditions: for % bwl (nadir): mouse, in vivo, iv; for HNTD (DT), total dose / HNTD (highest non-toxic dose), per dose: single agent IV, days 15, 21
Protocol: A product is considered to be active if log10 cell kill is greater than or equal to 0.7. A product is considered to be very active if log10 cell kill is greater than 2.8.
The animals subjected to the experiment, generally mice, are subcutaneously grafted bilaterally with 30 to 60 mg of a tumor fragment on day zero. The animals bearing tumors are mixed before being subjected to the various treatments and controls. In the case of treatment of advanced tumors, tumors are allowed to develop to the desired size, animals having insufficiently developed tumors being eliminated. The selected animals are distributed at random to undergo the treatments and controls. […] Chemotherapy generally begins from 3 to 22 days after grafting, depending on the type of tumor. The animals are observed every day. The different animal groups are weighed 3 or 4 times a week until the maximum weight loss is attained, and the groups are then weighed at least once a week until the end of the trial.
The tumors are measured 2 or 3 times a week until the tumor reaches approximately 2 g, or until the animal dies, if this occurs before the tumor reaches 2 g. The animals are autopsied after death.

[3] = Taxotere alone IV 48.1 mg/kg/dose d14, 23 (total 96.8)
[4] = Flavo alone IV at HNTD 2.9 mg/kg/dose (total 23.2 mg/kg)
[5] = Flavopiridol alone IV 1.75 mg/kg/dose d14-17, 20-23 (total 14)
[6] = Flavopiridol alone IV 2.9 mg/kg/dose d14-17, 20-23 (total 23.2)
[7] = Flavopiridol alone IV 4.8 mg/kg/dose d14-17, 20-23 (total 38.4)

SMILES: CC(=O)O[C@@]12CO[C@@H]1C[C@H](O)[C@@]1(C)C(=O)[C@H](O)C3=C(C)[C@@H](OC(=O)[C@H](O)[C@@H](NC(=O)OC(C)(C)C)c4ccccc4)C[C@@](O)([C@@H](OC(=O)c4ccccc4)[C@H]21)C3(C)C [Taxotere ®, docetaxel]
- CR (complete response) [1, 3]: 6/6
- Comments (toxicity level of the dose) [1, 3]: HNTD
- lck Gross [1, 3]: 4.4
- % bwl (nadir) ([1]; Taxotere alone IV 48.1 mg/kg/dose d14, 23 (total 96.8), nadir day 28): 8 (28) %
- Comments: DD ([1]; Taxotere alone IV 78.1 mg/kg/dose d14, 23 (total 156.2)): 2/6 DD
- % bwl (nadir) ([1]; Taxotere alone IV 78.1 mg/kg/dose d14, 23 (total 156.2), nadir day 29): 20 (29) %
- log cell kill net ([1]; docetaxel alone at HNTD 48.1 mg/kg/injection (total 96.8 mg/kg)): 3
- HNTD, per injection ([1]; docetaxel alone, days 14 and 23): 48.1 mg/kg/injection
- highest non-toxic total dose, component alone [1]: 96.8 mg/kg
- lck (log10 cell kill) ([2]; Taxotere alone IV 30.0 mg/kg days 15, 21 (total 60.0)): 4.7
- CR (complete response) ([2]; Taxotere alone IV 30.0 mg/kg days 15, 21 (total 60.0), 30 mg/kg): 5/5 CR
- CR (complete response) ([2]; Taxotere alone IV 30.0 mg/kg days 15, 21 (total 60.0), listed as Taxotere®, 30 mg/kg): complete response in all 5 of the mice
- % bwl (nadir) ([2]; 30 mg/kg): 8 (27) %
- HNTD (DT), total dose [2]: (60.0) mg/kg
- HNTD (highest non-toxic dose), per dose [2]: 30.0 mg/kg
- lck (log10 cell kill) (MA13/C; Taxotere alone IV 30 mg/kg days 14, 25 (total 60)): 0.9
- HNTD (DT), total dose (MA13/C; mouse, in vivo): (60) mg/kg
- HNTD, per dose (MA13/C; mouse, in vivo): 30 mg/kg
- % bwl (nadir) (MA13/C; mouse, in vivo, iv, 30 mg/kg): 3.6%
- Comments (toxicity level of the dose) (MA13/C; mouse, in vivo, iv, 30 mg/kg): HNTD

SMILES: CN1CC[C@H](c2c(O)cc(O)c3c(=O)cc(-c4ccccc4Cl)oc23)[C@H](O)C1 [Flavopiridol, cis-5,7-dihydroxy-2-(2-chlorophenyl)-8-[4-(3-hydroxy-1-methyl)-piperidinyl]-1-benzopyran-4-one]
- activity rating [1, 4]: inactive
- log cell kill net [1, 4]: −0.4
- highest non-toxic dose (HNTD), per dose ([1]; Flavo alone IV once a day, day 14 to 17 and 20-23): 2.9 mg/kg/dose
- CR (complete response) [1, 5]: 0/6
- lck Gross [1, 5]: 0.0
- % bwl (nadir) ([1]; Flavopiridol alone IV 1.75 mg/kg/dose d14-17, 20-23 (total 14), day 24): +10 (24) %
- Comments (toxicity level of the dose) [1, 6]: HNTD
- lck Gross [1, 6]: 1.0
- CR (complete response) ([1]; Flavopiridol alone IV 2.9 mg/kg/dose d14-17, 20-23 (total 23.2), 2.9 mg/kg): 0/6
- CR (complete response) ([1]; Flavopiridol alone IV 2.9 mg/kg/dose d14-17, 20-23 (total 23.2), listed as Flavo, 2.9 mg/kg): no complete regression
- % bwl (nadir) ([1]; Flavopiridol alone IV 2.9 mg/kg/dose d14-17, 20-23 (total 23.2), nadir day 18): 3 (18) %
- % bwl (nadir) [1, 7]: >20%
- Comments: DD [1, 7]: 4/5 DD
- highest non-toxic total dose, component alone [1]: 23.2 mg/kg
- lck (log10 cell kill) ([2]; Flavopiridol alone IV 6.0 mg/kg days 15, 21 (total 12.0)): 0.4
- CR (complete response) ([2]; Flavopiridol alone IV 6.0 mg/kg days 15, 21 (total 12.0), 6 mg/kg): 0/5 CR
- CR (complete response) ([2]; Flavopiridol alone IV 6.0 mg/kg days 15, 21 (total 12.0), listed as flavopiridol, 6 mg/kg): no compete responses in the 5 mice tested
- % bwl (nadir) ([2]; 6 mg/kg): 6 (16) %
- HNTD (DT), total dose [2]: (12.0) mg/kg
- HNTD (highest non-toxic dose), per dose [2]: 6.0 mg/kg
- lck (log10 cell kill) (MA13/C; Flavopiridol alone po 2.7 mg/kg days 14-18, 21-25 (total 27)): 0.1
- % bwl (nadir) (MA13/C; mouse, in vivo, po, 2.7 mg/kg): 11.6%
